Results from patent US10966426B2, “Herbicidal compositions comprising phenylpyrimidines” (BASF SE, priority 2016, dated 2021).

Legend:
Type in all cases: in vivo
Ambrosia elatior [1] = assay: greenhouse pre-emergence treatment, AMBEL; conditions: Ambrosia artemisiifolia, 480 h, 20 DAT, AMBEL
Procedure, shortened: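 Seeds were sown per species in pots of loamy sand with about 3.0% humus, sprayed with the aqueous spray liquor directly after sowing, watered and hooded until rooted, then kept at 10-25° C. or 20-35° C. for 2 to 4 weeks. Damage was scored 0 (none) to 100 (no emergence/complete destruction).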

Poa annua = assay: greenhouse post-emergence treatment, POAAN; conditions: Poa annua
Procedure, shortened: (§1)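 Greenhouse; post-emergence spray at 3–15 cm; aqueous EC formulation; 2–4 weeks; 0–100 visual score.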

Alopecurus myosuroides = assay: greenhouse post-emergence treatment, ALOMY; conditions: Alopecurus myosuroides, 480 h, 20 DAT, ALOMY
Procedure, shortened: (§2)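 Visual damage score 0–100 (0 = normal growth; 100 = no emergence/above-ground parts destroyed), read 2–4 wk post-treatment. Loamy sand, ~3.0% humus; seedlings grown in place or transplanted days before spraying; water as solvent; 10-25° C. or 20-35° C. per species. Combination expectations by Colby: E=X+Y−(X·Y/100).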

Papaver rhoeas = assay: greenhouse post-emergence treatment, PAPRH; conditions: Papaver rhoeas
Procedure, shortened: (§3)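 Each species was grown separately and treated once it reached 3 to 15 cm, using actives suspended or emulsified in water. Plants were kept at 10-25° C. or 20-35° C., depending on species. Damage is a 0–100 rating taken during 2 to 4 weeks.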

Lolium multiflorum = assay: greenhouse post-emergence treatment, LOLMU; conditions: Lolium multiflorum, LOLMU
Procedure, shortened: as §2

Polygonum convolvulus = assay: greenhouse post-emergence treatment, POLCO; conditions: Fallopia convolvulus
Procedure, shortened: as §3

Setaria viridis = assay: greenhouse post-emergence treatment, SETVI; conditions: Setaria viridis
Procedure, shortened: as §2

Digitaria sanguinalis = assay: greenhouse post-emergence treatment, DIGSA; conditions: Digitaria sanguinalis, DIGSA
Procedure, shortened: as §2

Bromus sterilis = assay: greenhouse post-emergence treatment, BROST; conditions: Bromus sterilis
Procedure, shortened: as §2

Brachiaria decumbens = assay: greenhouse post-emergence treatment, BRADC; conditions: for % activity: cinmethylin solo (EC 750 g/l)
Procedure, shortened: as §1

Ambrosia elatior [2] = assay: greenhouse post-emergence treatment, AMBEL; conditions: AMBEL
Protocol: The culture containers used were plastic pots containing loamy sand with approximately 3.0% of humus as substrate. The seeds of the test plants were sown separately for each species.
For the post-emergence treatment, the test plants were grown to a plant height of from 3 to 15 cm, depending on the plant habit, and only then treated with the active compounds which had been suspended or emulsified in water. To this end, the test plants were either sown directly, and grown in the same containers, or they were first grown separately as seedlings and transplanted into the test containers a few days prior to treatment.
Depending on the species, the plants were kept at 10-25° C. and 20-35° C., respectively.
The test period extended over 2 to 4 weeks. During this time, the plants were tended and their response to the individual treatments was evaluated.
Evaluation was carried out using a scale from 0 to 100. 100 means no emergence of the plants, or complete destruction of at least the above-ground parts, and 0 means no damage or normal course of growth. A good herbicidal activity is given at values of at least 70, and very good herbicidal activity is given at values of at least 85.
The respective stated components A and B, and if appropriate, C were formulated as a 10% by weight strength emulsion concentrate and, with addition of the amount of solvent system, introduced into the spray liquor used for applying the active compound. In the examples, the solvent used was water.
In the examples below, using the method of S. R. Colby (1967) “Calculating synergistic and antagonistic responses of herbicide combinations”, Weeds 15, p. 22ff., the value E, which is expected if the activity of the individual active compounds is only additive, was calculated. E=X+Y−(X·Y/100) where X=effect in percent using herbicide A at an application rate a; • Y=effect in percent using herbicide B at application rate b; • E=expected effect (in %) of herbicide A+herbicide B at application rates a+b.

[3] = 480 h, solo, WG 70%, 17.5 gai/ha, 20 DAT
[4] = 480 h, solo, WG 70%, 35 gai/ha, 20 DAT
[5] = 504 h, 21 DAT, solo cinmethylin (EC 750 g/l) 62.5 gai/ha, read-out: % activity
[6] = 504 h, 21 DAT, solo cinmethylin (EC 750 g/l) 125 gai/ha, read-out: % activity
[7] = Urochloa decumbens, 504 h, read-out: % activity

## CSc1nnc(C(C)(C)C)c(=O)n1N [metribuzin]
Ambrosia elatior [1]; metribuzin WG 70% solo 250 gai/ha
  percent weed control (herbicidal activity, 0-100 scale) at 250 g/ha: 60%
Ambrosia elatior [1]; solo, WG 70%, 31.25 gai/ha
  pest or weed control at 31.25 g/ha: 40%
Ambrosia elatior [1]; solo, WG 70%, 62.5 gai/ha
  pest or weed control at 62.5 g/ha: 40%
Ambrosia elatior [1]; solo, WG 70%, 125 gai/ha
  pest or weed control at 125 g/ha: 70%
Poa annua; 480 h, 20 DAT, POAAN, metribuzin WG 70% solo 17.5 gai/ha
  inhibition at 17.5 g/ha: 60%
Poa annua; 480 h, 20 DAT, POAAN, metribuzin WG 70% solo 35 gai/ha
  inhibition at 35 g/ha: 70%
Poa annua; 480 h, solo, WG 70%, POAAN, 17.5 gai/ha, 20 DAT
  pest or weed control at 17.5 g/ha: 60%
Alopecurus myosuroides; metribuzin WG 70% solo 17.5 gai/ha
  inhibition at 17.5 g/ha: 0%
Alopecurus myosuroides; metribuzin WG 70% solo 35 gai/ha, read-out: % activity
  inhibition at 35 g/ha: 10%
Alopecurus myosuroides; solo, WG 70%, 17.5 gai/ha
  pest or weed control at 17.5 g/ha: 0%
Alopecurus myosuroides; solo, WG 70%, 35 gai/ha
  pest or weed control at 35 g/ha: 10%
Papaver rhoeas; 480 h, solo, WG 70%, PAPRH, 17.5 gai/ha, 20 DAT
  pest or weed control at 17.5 g/ha: 60%
Lolium multiflorum; [3]
  pest or weed control at 17.5 g/ha: 20%
Lolium multiflorum; [4]
  pest or weed control at 35 g/ha: 60%
Lolium multiflorum; 480 h, solo, WG 70%, 70 gai/ha, 20 DAT
  pest or weed control at 70 g/ha: 65%
Polygonum convolvulus; 480 h, 20 DAT, POLCO, metribuzin WG 70% solo 17.5 gai/ha
  inhibition at 17.5 g/ha: 0%
Polygonum convolvulus; 480 h, 20 DAT, POLCO, metribuzin WG 70% solo 35 gai/ha
  inhibition at 35 g/ha: 0%
Polygonum convolvulus; 480 h, 20 DAT, POLCO, metribuzin WG 70% solo 70 gai/ha
  inhibition at 70 g/ha: 60%
Polygonum convolvulus; 480 h, 20 DAT, POLCO, metribuzin WG 70% solo 140 gai/ha
  inhibition at 140 g/ha: 70%
Setaria viridis; 480 h, solo, WG 70%, SETVI, 17.5 gai/ha, 20 DAT
  pest or weed control at 17.5 g/ha: 30%
Digitaria sanguinalis; 480 h, 20 DAT, metribuzin WG 70% solo 17.5 gai/ha
  inhibition at 17.5 g/ha: 0%
Digitaria sanguinalis; 480 h, 20 DAT, metribuzin WG 70% solo 35 gai/ha
  inhibition at 35 g/ha: 35%
Digitaria sanguinalis; [3]
  pest or weed control at 17.5 g/ha: 0%
Digitaria sanguinalis; [4]
  pest or weed control at 35 g/ha: 35%
Digitaria sanguinalis; 480 h, solo, WG 70%, 140 gai/ha, 20 DAT
  pest or weed control at 140 g/ha: 85%
Bromus sterilis; 480 h, solo, WG 70%, BROST, 17.5 gai/ha, 20 DAT
  pest or weed control at 17.5 g/ha: 25%
Bromus sterilis; 480 h, solo, WG 70%, BROST, 35 gai/ha, 20 DAT
  pest or weed control at 35 g/ha: 55%
Brachiaria decumbens; Urochloa decumbens, 480 h, 20 DAT, BRADC, metribuzin WG 70% solo 17.5 gai/ha
  inhibition at 17.5 g/ha: 50%
Ambrosia elatior [2]; Ambrosia artemisiifolia, 480 h, 20 DAT, metribuzin WG 70% solo 17.5 gai/ha
  inhibition at 17.5 g/ha: 0%
Ambrosia elatior [2]; Ambrosia artemisiifolia, 480 h, 20 DAT, metribuzin WG 70% solo 35 gai/ha
  inhibition at 35 g/ha: 0%
Ambrosia elatior [2]; Ambrosia artemisiifolia, 480 h, 20 DAT, metribuzin WG 70% solo 70 gai/ha
  inhibition at 70 g/ha: 0%
Ambrosia elatior [2]; Ambrosia artemisiifolia, 480 h, 20 DAT, metribuzin WG 70% solo 140 gai/ha
  inhibition at 140 g/ha: 70%
Ambrosia elatior [2]; solo, WG 70%, 17.5 gai/ha, 20 DAT
  % activity: 0%
Ambrosia elatior [2]; solo, WG 70%, 35 gai/ha, 20 DAT
  % activity: 0%
Ambrosia elatior [2]; solo, WG 70%, 70 gai/ha, 20 DAT
  % activity: 0%

## Cc1ccccc1CO[C@@H]1C[C@@]2(C(C)C)CC[C@]1(C)O2 (racemic) [cinmethylin]
Ambrosia elatior [1]; 62.5 gai/ha (EC 750 g/l), Table X1, read-out: % activity, solo application
  percent weed control (herbicidal activity, 0-100 scale) at 62.5 g/ha: 0%
Ambrosia elatior [1]; 125 gai/ha (EC 750 g/l), Table X1, read-out: % activity, solo application
  percent weed control (herbicidal activity, 0-100 scale) at 125 g/ha: 0%
Poa annua; 504 h, read-out: % activity
  pest or weed control at 62.5 g/ha: 70%
Papaver rhoeas; 504 h, PAPRH, 21 DAT, solo cinmethylin (EC 750 g/l) 62.5 gai/ha
  pest or weed control at 62.5 g/ha: 0%
Papaver rhoeas; 504 h, read-out: % activity
  pest or weed control at 125 g/ha: 20%
  pest or weed control at 250 g/ha: 20%
  pest or weed control at 500 g/ha: 55%
Lolium multiflorum; [5]
  pest or weed control at 62.5 g/ha: 0%
Lolium multiflorum; [6]
  pest or weed control at 125 g/ha: 30%
Polygonum convolvulus; 504 h, read-out: % activity
  pest or weed control at 62.5 g/ha: 0%
  pest or weed control at 125 g/ha: 0%
  pest or weed control at 250 g/ha: 0%
  pest or weed control at 500 g/ha: 0%
Setaria viridis; 504 h, SETVI, 21 DAT, solo cinmethylin (EC 750 g/l) 125 gai/ha
  pest or weed control at 125 g/ha: 55%
Setaria viridis; 504 h, read-out: % activity
  pest or weed control at 62.5 g/ha: 20%
  pest or weed control at 500 g/ha: 85%
Digitaria sanguinalis; [5]
  pest or weed control at 62.5 g/ha: 0%
Digitaria sanguinalis; [6]
  pest or weed control at 125 g/ha: 15%
Digitaria sanguinalis; 504 h, 21 DAT, solo cinmethylin (EC 750 g/l) 250 gai/ha, read-out: % activity
  pest or weed control at 250 g/ha: 20%
Bromus sterilis; 504 h, read-out: % activity
  pest or weed control at 62.5 g/ha: 10%
  pest or weed control at 250 g/ha: 25%
Brachiaria decumbens; Urochloa decumbens, 504 h, BRADC, 21 DAT, solo cinmethylin (EC 750 g/l) 125 gai/ha, read-out: % activity
  pest or weed control at 125 g/ha: 0%
Brachiaria decumbens; Urochloa decumbens, 504 h, BRADC, 21 DAT, solo cinmethylin (EC 750 g/l) 500 gai/ha
  pest or weed control at 500 g/ha: 20%
Brachiaria decumbens; [7]
  pest or weed control at 62.5 g/ha: 0%
  pest or weed control at 250 g/ha: 10%
Brachiaria decumbens; 125 gai/ha, 21 DAT, BRADC
  % activity: 0%
Brachiaria decumbens; 500 gai/ha, 21 DAT, BRADC
  % activity: 20%
Ambrosia elatior [2]; cinmethylin solo (EC 750 g/l), 62.5 gai/ha, 21 DAT
  % activity: 0%
Ambrosia elatior [2]; cinmethylin solo (EC 750 g/l), 125 gai/ha, 21 DAT
  % activity: 0%
